In the supplement of paper PMC4862054:

test system: MCF-10A; assay: normalised response (% of control), CellTiter-Glo; higher = more viable cells (100 = DMSO, 0 = benzethonium chloride kill control); conditions: incubation time: 72 h
Procedure, shortened: (§1)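 Normalised signals at single concentrations make up the values. They come from breast cancer cell lines seeded (20 µl suspension) into 384-well plates with compound at 5 concentrations in 10-fold steps over a compound-specific 10,000-fold range, incubated 72 h, and read for CellTox Green fluorescence then CellTiter-Glo luminescence. Each plate was normalised to 0.1 % DMSO (100) and a positive kill control (0).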

`CCN(CC)CCCC(C)Nc1c2ccc(Cl)cc2nc2ccc(OC)cc12` (configuration not stated) [Mepacrine] (50 nM) was tested. Which normalised response did it give?
The normalised response was 92.9%.

Which normalised response does the source give for `O=C(/C=C/c1cccnc1)NCCCCC1CCN(C(=O)c2ccccc2)CC1` [Daporinad] (1 nM) here?
The normalised response was 106%.

`Nc1nc2[nH]cc(CCc3ccc(C(=O)N[C@@H](CCC(=O)O)C(=O)O)cc3)c2c(=O)[nH]1` [Pemetrexed] (10 nM) was tested. Which normalised response did it give?
Its normalised response is 100%.

Which normalised response does the source give for `CC[C@H](Nc1ncnc2[nH]cnc12)c1nc2cccc(F)c2c(=O)n1-c1ccccc1` [GS-1101] (10 nM) here?
Its normalised response is 89.7%.

For `Cc1cnc(NC(=O)Nc2cc(Br)c(C)cc2OC[C@@H]2CNCCO2)cn1` [Rabusertib] (0.1 nM), which normalised response is on record?
Its normalised response is 109%.

How did the normalised response turn out when `CNC(=O)c1cc(Oc2ccc(NC(=O)Nc3cc(C(C)(C)C)nn3-c3ccc4ncccc4c3)c(F)c2)ccn1` [Rebastinib] (1 nM) was run?
Its normalised response is 109%.

With `CCc1cncnc1N1CCN(Cc2nc3ccc(C(F)(F)F)cc3[nH]2)CC1` (1 nM) as the molecule, how does the normalised response read?
Its normalised response is 106%.

How did the normalised response turn out when `O=C(Cc1ccc(-c2ccc(OCCN3CCOCC3)cc2)cn1)NCc1ccccc1` [KX2-391] (1 nM) was run?
The normalised response was 121%.

For `O=C(/C=C/c1cccnc1)NCCCCC1CCN(C(=O)c2ccccc2)CC1` [Daporinad] (0.1 nM), which normalised response is on record?
Its normalised response is 102%.

With `O=C(O)C(=O)O.[NH-][C@@H]1CCCC[C@H]1[NH-].[Pt+2]` [Oxaliplatin] (1 nM) as the molecule, how does the normalised response read?
The normalised response was 96.6%.

How did the normalised response turn out when `CC(=O)Nc1cccc(-n2c(=O)n(C3CC3)c(=O)c3c(Nc4ccc(I)cc4F)n(C)c(=O)c(C)c32)c1` [Trametinib] (0.025 nM) was run?
The normalised response was 96.3%.

Which normalised response does the source give for `O=C(O)C1(C(=O)O)CCC1.[NH2-].[NH2-].[Pt+2]` [Carboplatin] (1 nM) here?
The normalised response was 108%.

Which normalised response does the source give for `C[C@H]1C[C@@H]2[C@H]([C@@H](O)C[C@@]3(C)[C@H]2CC[C@]3(O)C(=O)CO)[C@@]2(C)C=CC(=O)C=C12` [Methylprednisolone] (1 nM) here?
Its normalised response is 103%.

How did the normalised response turn out when `CC[C@H](C)C(=O)O[C@H]1C[C@H](O)C=C2C=C[C@H](C)[C@H](CC[C@@H](O)C[C@@H](O)CC(=O)O)[C@H]21` [Pravastatin] (10 nM) was run?
The normalised response was 102%.

`O=C(Cc1ccc(-c2ccc(OCCN3CCOCC3)cc2)cn1)NCc1ccccc1` [KX2-391] (10 nM) was tested. Which normalised response did it give?
The normalised response was 107%.

test system: HCC1599; assay: as above; conditions: incubation time: 72 h
Procedure, shortened: as §1

Which normalised response does the source give for `Nc1nc(F)nc2c1ncn2[C@@H]1O[C@H](CO)[C@@H](O)[C@@H]1O` [Fludarabine] (1 nM) here?
Its normalised response is 102%.

With `CC[C@@H]1C(=O)N(C)c2cnc(Nc3ccc(C(=O)NC4CCN(C)CC4)cc3OC)nc2N1C1CCCC1` [BI 2536] (0.1 nM) as the molecule, how does the normalised response read?
Its normalised response is 110%.

How did the normalised response turn out when `Nc1ncn([C@H]2C[C@H](O)[C@@H](CO)O2)c(=O)n1` [Decitabine] (1 nM) was run?
Its normalised response is 99.7%.

How did the normalised response turn out when `CC1=C(/C=C/C(C)=C/C=C/C(C)=C/C(=O)O)C(C)(C)CCC1` [Tretinoin] (1 nM) was run?
The normalised response was 92%.

`COc1cc([C@@H]2c3cc4c(cc3[C@@H](O[C@@H]3O[C@@H]5CO[C@@H](c6cccs6)O[C@H]5[C@H](O)[C@H]3O)[C@H]3COC(=O)[C@H]23)OCO4)cc(OC)c1O` [Teniposide] (1 nM) was tested. Which normalised response did it give?
The normalised response was 107%.

For `CCN(CC)CCCC(C)Nc1c2ccc(Cl)cc2nc2ccc(OC)cc12` (configuration not stated) [Mepacrine] (50 nM), which normalised response is on record?
The normalised response was 106%.

`O=C(/C=C/c1cccnc1)NCCCCC1CCN(C(=O)c2ccccc2)CC1` [Daporinad] (1 nM) was tested. Which normalised response did it give?
The normalised response was 106%.

`Nc1nc2[nH]cc(CCc3ccc(C(=O)N[C@@H](CCC(=O)O)C(=O)O)cc3)c2c(=O)[nH]1` [Pemetrexed] (10 nM) was tested. Which normalised response did it give?
Its normalised response is 88.7%.

For `CC[C@H](Nc1ncnc2[nH]cnc12)c1nc2cccc(F)c2c(=O)n1-c1ccccc1` [GS-1101] (10 nM), which normalised response is on record?
The normalised response was 112%.

For `Cc1cnc(NC(=O)Nc2cc(Br)c(C)cc2OC[C@@H]2CNCCO2)cn1` [Rabusertib] (0.1 nM), which normalised response is on record?
The normalised response was 88.5%.

`CNC(=O)c1cc(Oc2ccc(NC(=O)Nc3cc(C(C)(C)C)nn3-c3ccc4ncccc4c3)c(F)c2)ccn1` [Rebastinib] (1 nM) was tested. Which normalised response did it give?
The normalised response was 102%.

With `CCc1cncnc1N1CCN(Cc2nc3ccc(C(F)(F)F)cc3[nH]2)CC1` (1 nM) as the molecule, how does the normalised response read?
Its normalised response is 114%.

`O=C(Cc1ccc(-c2ccc(OCCN3CCOCC3)cc2)cn1)NCc1ccccc1` [KX2-391] (1 nM) was tested. Which normalised response did it give?
The normalised response was 83.3%.

`O=C(/C=C/c1cccnc1)NCCCCC1CCN(C(=O)c2ccccc2)CC1` [Daporinad] (0.1 nM) was tested. Which normalised response did it give?
The normalised response was 108%.

How did the normalised response turn out when `O=C(O)C(=O)O.[NH-][C@@H]1CCCC[C@H]1[NH-].[Pt+2]` [Oxaliplatin] (1 nM) was run?
The normalised response was 95%.

How did the normalised response turn out when `CC(=O)Nc1cccc(-n2c(=O)n(C3CC3)c(=O)c3c(Nc4ccc(I)cc4F)n(C)c(=O)c(C)c32)c1` [Trametinib] (0.025 nM) was run?
The normalised response was 101%.

`O=C(O)C1(C(=O)O)CCC1.[NH2-].[NH2-].[Pt+2]` [Carboplatin] (1 nM) was tested. Which normalised response did it give?
Its normalised response is 103%.

`C[C@H]1C[C@@H]2[C@H]([C@@H](O)C[C@@]3(C)[C@H]2CC[C@]3(O)C(=O)CO)[C@@]2(C)C=CC(=O)C=C12` [Methylprednisolone] (1 nM) was tested. Which normalised response did it give?
Its normalised response is 113%.

`CC[C@H](C)C(=O)O[C@H]1C[C@H](O)C=C2C=C[C@H](C)[C@H](CC[C@@H](O)C[C@@H](O)CC(=O)O)[C@H]21` [Pravastatin] (10 nM) was tested. Which normalised response did it give?
Its normalised response is 88.5%.

For `O=C(Cc1ccc(-c2ccc(OCCN3CCOCC3)cc2)cn1)NCc1ccccc1` [KX2-391] (10 nM), which normalised response is on record?
The normalised response was 100%.

test system: CAL-120; assay: as above; conditions: incubation time: 72 h
Procedure, shortened: as §1

How did the normalised response turn out when `Nc1nc(F)nc2c1ncn2[C@@H]1O[C@H](CO)[C@@H](O)[C@@H]1O` [Fludarabine] (1 nM) was run?
The normalised response was 98.4%.

Which normalised response does the source give for `CC[C@@H]1C(=O)N(C)c2cnc(Nc3ccc(C(=O)NC4CCN(C)CC4)cc3OC)nc2N1C1CCCC1` [BI 2536] (0.1 nM) here?
Its normalised response is 104%.

For `Nc1ncn([C@H]2C[C@H](O)[C@@H](CO)O2)c(=O)n1` [Decitabine] (1 nM), which normalised response is on record?
Its normalised response is 97%.

For `CC1=C(/C=C/C(C)=C/C=C/C(C)=C/C(=O)O)C(C)(C)CCC1` [Tretinoin] (1 nM), which normalised response is on record?
Its normalised response is 98.7%.

For `COc1cc([C@@H]2c3cc4c(cc3[C@@H](O[C@@H]3O[C@@H]5CO[C@@H](c6cccs6)O[C@H]5[C@H](O)[C@H]3O)[C@H]3COC(=O)[C@H]23)OCO4)cc(OC)c1O` [Teniposide] (1 nM), which normalised response is on record?
The normalised response was 95.8%.

How did the normalised response turn out when `CCN(CC)CCCC(C)Nc1c2ccc(Cl)cc2nc2ccc(OC)cc12` (configuration not stated) [Mepacrine] (50 nM) was run?
The normalised response was 98.6%.

With `O=C(/C=C/c1cccnc1)NCCCCC1CCN(C(=O)c2ccccc2)CC1` [Daporinad] (1 nM) as the molecule, how does the normalised response read?
Its normalised response is 105%.

How did the normalised response turn out when `Nc1nc2[nH]cc(CCc3ccc(C(=O)N[C@@H](CCC(=O)O)C(=O)O)cc3)c2c(=O)[nH]1` [Pemetrexed] (10 nM) was run?
Its normalised response is 105%.

Which normalised response does the source give for `CC[C@H](Nc1ncnc2[nH]cnc12)c1nc2cccc(F)c2c(=O)n1-c1ccccc1` [GS-1101] (10 nM) here?
The normalised response was 93.2%.

How did the normalised response turn out when `Cc1cnc(NC(=O)Nc2cc(Br)c(C)cc2OC[C@@H]2CNCCO2)cn1` [Rabusertib] (0.1 nM) was run?
Its normalised response is 107%.

Which normalised response does the source give for `CNC(=O)c1cc(Oc2ccc(NC(=O)Nc3cc(C(C)(C)C)nn3-c3ccc4ncccc4c3)c(F)c2)ccn1` [Rebastinib] (1 nM) here?
Its normalised response is 99.1%.

For `CCc1cncnc1N1CCN(Cc2nc3ccc(C(F)(F)F)cc3[nH]2)CC1` (1 nM), which normalised response is on record?
The normalised response was 101%.
